Key:
[1] = target: T1, human cyclin-dependent kinase 2 (Cdk2) (Homo sapiens, UniProt P24941); assay: Kinetic thiol consumption assay with wild type Cdk2 (C177); assay type: binding; parameters: key to Rate enhancement, Cdk2 WT: k(Cdk2) divided by k(model thiol); Rate constant with Cdk2 (k(Cdk2)): unit not given here; conditions: for Rate constant with Cdk2 (k(Cdk2)): 500 μM ligand, 5 μM thiol, phosphate buffer pH 8; for Rate enhancement, Cdk2 WT: no additional mutations; for Rate constant with Cdk2 WT: Protein: Cdk2, cysteine position WT, in h^-1; for k(Cdk2)/k(Cdk2_mut) rate enhancement: model thiol Cdk2[C177A, F80C, K278C]; for k(Cdk2)/k(GSH) rate enhancement: model thiol glutathione
T1 construct: poly-histidine; made in house; host or cells: E. coli
In short: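 Rate constants came from first-order exponential decay fits of normalized fluorescence against time, with thiol (5 μM) in degassed pH 8 phosphate buffer containing 2% v/v TCEP beads and reads after 1 h at room temperature.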

Cdk2(T182C) (C177A) = target: T2, Cdk2(T182C) (C177A) (Homo sapiens, UniProt P24941, C177A/T182C); assay: Kinetic thiol consumption assay with Cdk2 mutant T182C; assay type: binding; parameters: key to Rate enhancement, Cdk2 T182C: rate constant with Cdk2 ÷ rate constant with model thiol (fold); conditions: additional mutation C177A; for Rate constant with Cdk2 T182C: Protein: Cdk2, cysteine position T182C, in h^-1
T2 construct: poly-histidine; made in house; host or cells: E. coli
In short: (§1)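 His-tagged single-surface-cysteine Cdk2 mutants (C177A background) from E. coli, 5 μM in degassed phosphate buffer pH 8, pre-treated with immobilized TCEP beads. Fluorescence (ex/em 380/470 nm) read after 1 h at room temperature, normalized to DMSO/thiol-only control; first-order decay fits gave rate constants, divided by model-thiol rate for rate enhancement.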

Cdk2(N272C) (C177A) = target: T3, Cdk2(N272C) (C177A) (Homo sapiens, UniProt P24941, C177A/N272C); assay: Kinetic thiol consumption assay with Cdk2 mutant N272C; assay type: binding; parameters: key to Rate enhancement, Cdk2 N272: rate constant with Cdk2 ÷ rate constant with model thiol (fold); conditions: for Rate enhancement, Cdk2 N272: Cdk2 N272, additional mutation C177A; for Rate constant with Cdk2 N272C: Protein: Cdk2, cysteine position N272C, additional mutation C177A, in h^-1
T3 construct: poly-histidine; made in house; host or cells: E. coli
In short: as §1

Cdk2(R122C) (C177A) = target: T4, Cdk2(R122C) (C177A) (Homo sapiens, UniProt P24941, C177A/R122C); assay: Kinetic thiol consumption assay with Cdk2 mutant R122C; assay type: binding; parameters: key to Rate enhancement, Cdk2 R122C: rate constant with Cdk2 ÷ rate constant with model thiol (fold); conditions: additional mutation C177A; for Rate constant with Cdk2 R122C: Protein: Cdk2, cysteine position R122C, in h-1
T4 construct: poly-histidine; made in house; host or cells: E. coli
In short: as §1

[2] = Kinetic thiol consumption assay with model thiol glutathione; assay type: physicochemical; parameters: Rate constant with glutathione (k(GSH)): unit not given here; conditions: for Rate constant with glutathione (k(GSH)): 500 μM ligand, 5 μM thiol, phosphate buffer pH 8; for Rate constant with Glutathione: Protein: Glutathione, cysteine position NA, in h-1
In short: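 First, 5 μM glutathione in degassed phosphate buffer (pH 8) receives immobilized TCEP beads (2% v/v). Then acrylamide is added and plates incubate 1 h at room temperature. Finally, fluorescence (380/470 nm) is normalized and fitted to first-order decay for rate constants.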

Cdk2(S276C) (C177A) = target: T5, Cdk2(S276C) (C177A) (Homo sapiens, UniProt P24941, C177A/S276C); assay: Kinetic thiol consumption assay with Cdk2 mutant S276C; assay type: binding; parameters: key to Rate enhancement, Cdk2 S276C: rate constant with Cdk2 ÷ rate constant with model thiol (fold); conditions: additional mutation C177A; for Rate constant with Cdk2 S276C: Protein: Cdk2, cysteine position S276C, in h^-1
T5 construct: poly-histidine; made in house; host or cells: E. coli
In short: as §1

Cdk2(H71C) (C177A) = target: T6, Cdk2(H71C) (C177A) (Homo sapiens, UniProt P24941, C177A/H71C); assay: Kinetic thiol consumption assay with Cdk2 mutant H71C; assay type: binding; parameters: key to Rate enhancement, Cdk2 H71C: rate constant with Cdk2 ÷ rate constant with model thiol (fold); conditions: additional mutation C177A
T6 construct: poly-histidine; made in house; host or cells: E. coli
In short: as §1

Cdk2(C177A, F80C) = target: T7, Cdk2(C177A, F80C) (Homo sapiens, UniProt P24941, C177A/F80C); assay: Kinetic thiol consumption assay with Cdk2 mutant F80C, incl. kobs versus concentration (Kd, k2); assay type: binding; parameters: key to Rate enhancement, Cdk2 F80C: Cdk2 rate constant divided by model-thiol rate constant; conditions: additional mutation C177A; for Rate constant with Cdk2 F80C: Protein: Cdk2, cysteine position F80C, in h^-1
T7 construct: poly-histidine; made in house; host or cells: E. coli
In short: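 His-tagged Cdk2(C177A/F80C) from E. coli or model thiol, 5 μM in degassed phosphate buffer pH 8 with TCEP beads, reacted with acrylamide ligands; fluorescence (ex/em 380/470 nm) normalized to DMSO control and fitted to first-order decay for kobs. Kd and k2 obtained from hyperbolic fit of kobs versus ligand concentration.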

Cdk2[C177A, F80C, K278C] = target: T8, Cdk2[C177A, F80C, K278C] (Homo sapiens, UniProt P24941, C177A/F80C/K278C); assay: Kinetic thiol consumption assay with mutant Cdk2 as model thiol; assay type: binding; parameters: unit not given here; conditions: 500 μM ligand, 5 μM thiol, phosphate buffer pH 8
T8 construct: poly-histidine; made in house; host or cells: E. coli
In short: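 Model thiol: His-tagged human Cdk2 C177A/F80C/K278C (two engineered surface cysteines), E. coli-expressed, 5 μM in degassed phosphate buffer pH 8 with immobilized TCEP beads (2% v/v). Fluorescence (ex/em 380/470 nm) followed over time at room temperature, normalized to DMSO/thiol control. First-order decay fit gives rate constants.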

Cdk2(S181C) (C177A) = target: T9, Cdk2(S181C) (C177A) (Homo sapiens, UniProt P24941, C177A/S181C); assay: Kinetic thiol consumption assay with Cdk2 mutant S181C; assay type: binding; parameters: key to Rate enhancement, Cdk2 S181C: rate constant with Cdk2 ÷ rate constant with model thiol (fold); conditions: additional mutation C177A; for Rate constant with Cdk2 S181C: Protein: Cdk2, cysteine position S181C, in h^-1
T9 construct: poly-histidine; made in house; host or cells: E. coli
In short: as §1

Structure (SMILES)	Rate constant with Cdk2 (k(Cdk2)) [1]	Rate enhancement, Cdk2 WT [1]	Rate constant with Cdk2 WT [1]	k(Cdk2)/k(Cdk2_mut) rate enhancement [1]	k(Cdk2)/k(GSH) rate enhancement [1]	Rate enhancement, Cdk2 T182C (Cdk2(T182C) (C177A))	Rate constant with Cdk2 T182C (Cdk2(T182C) (C177A))	Rate enhancement, Cdk2 N272 (Cdk2(N272C) (C177A))	Rate constant with Cdk2 N272C (Cdk2(N272C) (C177A))	Rate enhancement, Cdk2 R122C (Cdk2(R122C) (C177A))	Rate constant with Cdk2 R122C (Cdk2(R122C) (C177A))	Rate constant with glutathione (k(GSH)) [2]	Rate constant with Glutathione [2]	Rate enhancement, Cdk2 S276C (Cdk2(S276C) (C177A))	Rate constant with Cdk2 S276C (Cdk2(S276C) (C177A))	Rate enhancement, Cdk2 H71C (Cdk2(H71C) (C177A))	Rate enhancement, Cdk2 F80C (Cdk2(C177A, F80C))	Rate constant with Cdk2 F80C (Cdk2(C177A, F80C))	Rate constant with Cdk2[C177A, F80C, K278C] (k(Cdk2_mut)) (Cdk2[C177A, F80C, K278C])	Rate enhancement, Cdk2 S181C (Cdk2(S181C) (C177A))	also measured
C=CC(=O)N1CCCCCC1c1cccnc1 (stereo not shown) [EL-1059]	0.00213	0.3281	0.002126	0.4738	0.3244	1.009	0.00654	0.325	0.002106	0.3573	0.002315	0.00656	0.00648	0.7301	0.004731	0.3667	0.1379	0.0008934	0.00449	0.9519	Rate constant with Cdk2 H71C (Cdk2(H71C) (C177A); Protein: Cdk2, cysteine position H71C, in h^-1): 0.002376; Rate constant with Cdk2 S181C (Cdk2(S181C) (C177A)): 0.006168
C=CC(=O)N1CCCC1c1ccc(OC)cc1 (stereo not shown) [EL-1062]	0.00448	1.245	0.006301	0.6762	0.8802	5.254	0.0266	0.3073	0.001556	0.606	0.003068	0.00509	0.005063	0.2765	0.0014	0	1.223	0.006191	0.00663	1.564	Rate constant with Cdk2 S181C (Cdk2(S181C) (C177A)): 0.007918

Source: patent publication US11415579B2, “Assay for measuring a rate of reaction between a target and a ligand candidate” (Imperial College Innovations Ltd., priority 2016, dated 2022)
